Like-named read-outs stand apart in the source and are kept apart here.

Broadly, the Kd is the concentration at which binding is half-saturated. A word on the EC50: it is the midpoint of the concentration-response curve. Lower therefore signals higher potency in that assay.

The target in one assay is T1, GppNHp-loaded KRASG12D (Homo sapiens, UniProt P01116, G12D).
T1 construct: made in house; host or cells: Escherichia coli BL21-Gold (DE3)
Put plainly: Microscale thermophoresis, lysine NT-647-labeled GppNHp-loaded KRAS^G12D. It is filed as binding. Particulars: read-out: dissociation constant KD. On the procedure:
Microscale Thermophoresis
(§1) KRAS^G12D (250 μM) in 25 mM HEPES, 100 mM sodium chloride, 2 mM TCEP with 20 mM EDTA and 1 mM GppNHp was shaken at 220 rpm at 30° C. to remove the endogenous nucleotide, The solution was placed on ice for 2 minutes prior to the addition of 65 mM MgCl2. After an additional 10 minutes incubation on ice, 200 uL of a 10 uM solution of KRAS^G12D was combined with 200 uL of a 20 uM solution of NT-647-NHS-ester dye (from a 652.4 μM stock). The protein/dye mixture was rotated at 4° C. for 30 minutes, before being separated from the excess dye and buffer exchanged into 25 mM Tris, 100 mM sodium chloride, 2 mM TCEP, and 5 mM MgCl2 via a nap-5 column. The test compounds were arrayed across a 16-point dilution series consisting of 1.5% DMSO with 25 mM Tris, 100 mM NaCl, 2 mM TCEP, 5 mM MgCl2 and 0.05% tween-20. Thermophoretic movement of the fluorescently labeled protein with the inhibitors was performed using a Monolith NT.115 (Nanotemper Technologies). RALA and RHOA were purchased commercially from Abcam (RALA CN:ab102555, RHOA CN:ab101594).
In another set of experiments, the top D38-A59 two-site multivalent compounds were evaluated by a RAS pulldown using the RAS binding domain of CRAF (the top two hits are shown in FIG. 14D). This abrogation of binding between RAS and its effector protein was also evident in the RAS-RALGDS interaction (FIG. 14E). To quantify the binding of the two-site compounds to RAS, MST was performed again using lysine NT-647-labeled, GppNHp-loaded KRAS^G12D. […] The third (Y32) site was extended into (compound 34MEW95) using this scaffold.
Docking scores and dissociation constants for binding to GppNHp-bound KRAS^G12D (PDB:4DSN) were measured as set forth above for additional 2- and 3-site compounds by microscale thermophoresis.
For orientation: MST reads how a fluorescent partner responds to local heating, with and without ligand.

The target in another assay is T2, KRAS^G12D with GDP (Homo sapiens, UniProt P01116, G12D).
T2 construct: made in house; host or cells: Escherichia coli BL21-Gold (DE3)
The experiment in a line: Microscale thermophoresis, GDP-loaded KRAS^G12D. It is filed as binding. On the procedure:
as §1, with “KRAS^G12D (250 μM) in 25 mM HEPES, 100 mM sodium chloride, 2 mM TCEP with 20 mM EDTA and 1 mM GppNHp was shaken at 220 rpm at 30° C. to remove the endogenous nucleotide, The solution was placed on ice for 2 minutes prior to the addition of 65 mM MgCl2.” left out

Another assay deals with BJeLR (HRAS G12V). The experiment in a line: Cell viability assay (384-well, Alamar blue). The assay is classed as cell-based. Particulars: 48 h. On the procedure: (§2) All cell culture assays were incubated at 37° C., 5% CO2 in media containing Dulbecco's Modified Eagle Medium (DMEM) with 10% fetal bovine serum (FBS) and 1% penicillin-streptomycin (PS). 384-well format for EC50 determination: cells were trypsinized, counted, and seeded into 384-well plates at 1,000 cells/well. After 12-16 hours, compounds (as 50 mM stocks in DMSO) were arrayed in an 8- or 16-point dilution series in 384-well polypropylene plates. Compound solutions were transferred at a 1:5 dilution into the assay plates. After 48 hours, a 50% Alamar blue solution was added to a final concentration of 10% Alamar blue. After 6 hours of incubation, fluorescence intensity was determined using a Victor3 plate reader (Perkin Elmer) with a 535 nm excitation filter and a 590 nm emission filter. All compound measurements were performed in triplicate. For experiments performed in 6-well format, cells were trypsinized, counted, and seeded into 6-well plates at 200,000 cells per well 16 h prior to use. Media was then aspirated and replaced with 2 mL of media containing compounds at the indicated concentrations (from 10 mM stocks in DMSO). After 24 hours, cells were trypsinized and viability was determined using Trypan Blue exclusion assay.

The test system of a further assay is BxPC-3 (WT). The experiment in a line: Cell viability assay (384-well, Alamar blue). It is filed as cell-based. Particulars: Homo sapiens, Table 7, 48 hours, 8-point dilution series. On the procedure: as §2
(Resazurin is reduced to fluorescent resorufin, in cell work by metabolically active cells.)

In the next assay the test system is Calu-1 (KRAS G12C). The experiment in a line: Cell viability assay (384-well, Alamar blue). The assay is classed as cell-based. Particulars: Homo sapiens, Calu-1, 48 h. On the procedure: as §2
The next assay has as its system Panc-1 (KRAS G12D). The experiment in a line: Cell viability assay (384-well, Alamar blue). It is filed as cell-based. Particulars: Homo sapiens, PANC-1, 48 h. On the procedure:
as §2

A further assay relates to SW480 (KRAS G12V). The experiment in a line: Cell viability assay (384-well, Alamar blue). The assay is classed as cell-based. Particulars: Homo sapiens, SW480, 48 h. On the procedure:
as §2

Assay [1] deals with caspases 3 and 7 in HT-1080 (NRAS^Q61K) cells. Put plainly: Caspase 3/7 activation assay. Particulars: staurosporine 5 μM, 24 hours. The assay is classed as cell-based. On the procedure:
Caspase 3/7 Activation Assay
HT-1080 cells were seeded into 384-well plates at 1,000 cells/well. After 12-16 hours, compounds (as 50 mM stocks in DMSO) were arrayed in a dilution series in 384-well polypropylene plates. Compound solutions were transferred at a 1:5 dilution into the assay plates for a total volume of 40 μL. After 24 hours, 8 μL of a 1:100 solution of rhodamine 110 bis-(N-CBZ-1-aspartyl-1-glutamyl-1-valyl-aspartic acid amide) to lysis buffer (APO-1, Promega) was added and the plate was wrapped in aluminum foil and incubated at room temperature for 16 hours. Fluorescence intensity was then determined using a Victor3 plate reader (Perkin Elmer) with a 490 nm excitation filter and a 535 nm emission filter. A viability curve was performed in parallel with the same incubation time using the procedure described in the “cell viability assays” section.

Setting [2] is: Table 7, 8-point dilution series.
The mark [3] stands for this setting: 31MEW44 5 μM, 34MEW43 10 μM, 34MEW95 5 μM.

`NC1(C(=O)NCCCn2cc(-c3ccc(OC(F)(F)F)cc3)c3cc(CN4CCN(Cc5c(Cl)cccc5Cl)CC4)ccc32)CCNCC1` [Compound 31MEW44, 4-amino-N-(3-(5-((4-(2,6-dichlorobenzyl)piperazin-1-yl)methyl)-3-(4-(trifluoromethoxy)phenyl)-1H-indol-1-yl)propyl)piperidine-4-carboxamide]: the Kd at GppNHp-loaded KRASG12D (MST, GppNHp-loaded KRAS^G12D, 34MEW43 and 34MEW95 estimated, no full dose-response curve) is 9 µM; on KRAS^G12D with GDP (MST, GDP-loaded KRAS^G12D), 45 µM. Moreover, the loss in affinity entry on KRAS^G12D with GDP (GDP-loaded vs GppNHp-loaded KRAS^G12D) was “five-fold”. Moreover, the half-maximal effective concentration (EC50) in the assay on BJeLR (HRAS G12V) (setting [2]) is 3.95 µM; in the assay with BJeLR (HRAS G12V) (Table 8, 384-well, alamar blue), 4 µM; in the assay on BxPC-3 (WT), 5.29 µM; in the assay on Calu-1 (KRAS G12C) (setting [2]) it was 3.6 µM; in the assay on Calu-1 (KRAS G12C) (Table 8, 384-well, alamar blue), 3.6 µM; in the assay on Panc-1 (KRAS G12D) (setting [2]), 2.06 µM. Further, the EC50 turned out to be 5.1 µM with Panc-1 (KRAS G12D) (Table 8, 384-well, alamar blue); 2.18 µM in the assay with SW480 (KRAS G12V) (setting [2]); 2.2 µM in the assay on SW480 (KRAS G12V) (Table 8, 384-well, alamar blue). The “fluorescence of caspase 3/7 substrate” value is “Increased fluorescence” in assay [1] (setting [3]); “Increased fluorescence” in assay [1] (31MEW44 2.5 and 5 μM).

On to `NC1(C(=O)NCCCn2cc(-c3cccc(F)c3)c3c(CN4CCN(CCOc5ccc(Cl)cc5)CC4)cccc32)CCNCC1` [Compound 34MEW43, 4-amino-N-(3-(4-((4-(2-(4-chlorophenoxy)ethyl)piperazin-1-yl)methyl)-3-(3-fluorophenyl)-1H-indol-1-yl)propyl)piperidine-4-carboxamide], for which the dissociation constant (Kd) on GppNHp-loaded KRASG12D was found to be 73 µM. The concentration giving a half-maximal response (EC50) in the assay with BJeLR (HRAS G12V) (setting [2]) came out at 9.71 µM; with BJeLR (HRAS G12V) (Table 8, 384-well, alamar blue), 9.7 µM; with BxPC-3 (WT), 13.1 µM; in the assay on Calu-1 (KRAS G12C) (setting [2]), 9.42 µM; in the assay on Calu-1 (KRAS G12C) (Table 8, 384-well, alamar blue) it was 9.4 µM; in the assay with Panc-1 (KRAS G12D) (setting [2]), 5.96 µM. Further, the EC50 in the assay with Panc-1 (KRAS G12D) (Table 8, 384-well, alamar blue) stood at 6 µM; in the assay on SW480 (KRAS G12V) (setting [2]), 7.06 µM; with SW480 (KRAS G12V) (Table 8, 384-well, alamar blue), 7.1 µM. The “fluorescence of caspase 3/7 substrate” value in assay [1] (setting [3]) is “Increased fluorescence”.

Source of the values: patent US9926293B2, “Multivalent RAS binding compounds” (THE TRUSTEES OF COLUMBIA UNIVERSITY IN THE CITY OF NEW YORK, priority 2014, dated 2018).
